From patent US12018009B2, “ALDH-2 inhibitor compounds and methods of use” (Amygdala Neurosciences, Inc., priority 2022, dated 2024)

Tests used:
[1] = O'Malley et al. 2021; cited from earlier work
[2] = molecular target: T1, recombinant human ALDH-2 (Homo sapiens, UniProt P05091); assay: ALDH-2 inhibition assay; assay type: biochemical; settings: 60 min pre-incubation; 10 μM = highest concentration tested; read-out: Enzymatic Assays IC50 ALDH2
T1 sequence (P05091 18-517): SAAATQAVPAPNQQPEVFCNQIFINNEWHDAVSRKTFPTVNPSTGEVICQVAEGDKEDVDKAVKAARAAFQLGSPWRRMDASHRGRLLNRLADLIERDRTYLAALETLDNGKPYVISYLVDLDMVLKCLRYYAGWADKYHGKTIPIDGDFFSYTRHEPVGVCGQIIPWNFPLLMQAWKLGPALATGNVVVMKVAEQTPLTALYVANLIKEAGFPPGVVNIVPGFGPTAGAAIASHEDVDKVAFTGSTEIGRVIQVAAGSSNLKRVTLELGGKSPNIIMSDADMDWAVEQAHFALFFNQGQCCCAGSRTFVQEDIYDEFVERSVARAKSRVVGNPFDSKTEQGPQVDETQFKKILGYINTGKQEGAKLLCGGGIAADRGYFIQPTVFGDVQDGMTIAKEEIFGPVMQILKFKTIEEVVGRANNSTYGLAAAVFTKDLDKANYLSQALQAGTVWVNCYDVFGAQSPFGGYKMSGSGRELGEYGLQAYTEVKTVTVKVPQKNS
Protocol: A. ALDH-2 inhibition assay: The ALDH-2 reaction mixture used in the assay contained 125 μM formaldehyde, 75 μM NAD+, 20 mM NaCl, 10 mM MgCl2, and 20 nM recombinant human ALDH-2 in 50 mM Hepes buffer, pH 7.5 in a final volume of 10 μL using 384-well Corning 3820 plates. After 60 min of pre-incubation of the test ALDH-2 inhibitor compound with ALDH-2, the reaction was started by adding NAD+ and formaldehyde and the assay reaction mixture was allowed to proceed for 60 minutes. Activity of the ALDH-2 enzyme was determined by monitoring NADH formation using Perkin-Elmer Envision Reader with excitation and emission wavelengths set at 340 and 460 nm, respectively.

[3] = molecular target: T2, recombinant human ALDH-1 (Homo sapiens, UniProt P00352); assay: ALDH-1 inhibition assay; assay type: biochemical; settings: 60 min pre-incubation; 10 μM = highest concentration tested; read-out: Enzymatic Assays IC50 ALDH-1
T2 sequence (P00352 1-501): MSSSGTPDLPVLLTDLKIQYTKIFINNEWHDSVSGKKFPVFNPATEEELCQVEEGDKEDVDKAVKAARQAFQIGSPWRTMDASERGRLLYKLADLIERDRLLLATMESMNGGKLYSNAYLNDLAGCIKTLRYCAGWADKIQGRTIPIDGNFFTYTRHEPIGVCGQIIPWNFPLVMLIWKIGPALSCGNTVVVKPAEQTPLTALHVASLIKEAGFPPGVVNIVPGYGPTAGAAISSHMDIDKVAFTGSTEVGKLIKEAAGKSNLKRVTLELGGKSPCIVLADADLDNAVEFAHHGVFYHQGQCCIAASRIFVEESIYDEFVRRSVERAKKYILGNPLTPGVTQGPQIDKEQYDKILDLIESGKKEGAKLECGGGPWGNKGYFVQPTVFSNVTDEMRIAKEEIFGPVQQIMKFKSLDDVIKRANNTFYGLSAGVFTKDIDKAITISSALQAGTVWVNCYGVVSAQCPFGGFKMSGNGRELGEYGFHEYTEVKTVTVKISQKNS
Protocol: B. ALDH-1 inhibition assay: The ALDH-1 reaction mixture used in the assay contained 100 μM formaldehyde, 2.5 mM NAD+, 20 mM NaCl, 10 mM MgCl2, 1 mM dithiothreitol (DTT; reducing agent), and 50 nM recombinant human ALDH-1 in 50 mM Hepes buffer, pH 7.5 in a final volume of 10 μL using 384-well Corning 3820 plates. After 60 min of pre-incubation of the test ALDH-2 inhibitor compound with ALDH-1, the reaction was started by adding NAD+ and formaldehyde and the assay reaction mixture was allowed to proceed for 60 minutes. Activity of the ALDH-1 enzyme was determined by monitoring NADH formation using Perkin-Elmer Envision Reader with excitation and emission wavelengths set at 340 and 460 nm, respectively.

[4] = molecular target: T3, MAO-A (Homo sapiens, UniProt P21397); assay: MAO-A inhibition assay (luminogenic substrate); assay type: biochemical; settings: 20 min pre-incubation; 10 μM = highest concentration tested; read-out: Enzymatic Assays IC50 MAO-A
T3 sequence (P21397 1-527): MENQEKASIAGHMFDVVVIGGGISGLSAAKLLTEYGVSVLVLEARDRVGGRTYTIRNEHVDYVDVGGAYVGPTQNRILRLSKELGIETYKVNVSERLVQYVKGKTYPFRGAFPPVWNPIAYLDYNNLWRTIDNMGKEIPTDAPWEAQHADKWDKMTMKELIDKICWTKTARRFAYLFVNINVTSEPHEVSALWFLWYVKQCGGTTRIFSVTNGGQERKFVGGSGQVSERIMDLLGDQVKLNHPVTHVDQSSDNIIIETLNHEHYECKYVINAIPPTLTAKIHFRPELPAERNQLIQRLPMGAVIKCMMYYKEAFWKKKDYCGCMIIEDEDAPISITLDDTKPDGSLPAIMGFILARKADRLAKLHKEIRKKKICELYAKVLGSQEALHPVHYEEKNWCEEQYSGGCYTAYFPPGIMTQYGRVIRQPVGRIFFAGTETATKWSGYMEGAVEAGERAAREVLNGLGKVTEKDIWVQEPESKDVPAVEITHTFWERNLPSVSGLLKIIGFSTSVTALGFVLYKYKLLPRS
Protocol: (§1) D. MAO-A and MAO-B inhibition assays: MAO assays included luminogenic MAO substrate, reaction buffers, Luciferin Detection, and a reconstitution buffer with esterase. The MAO reaction mixture used in the assay included microsome contained MAO-A (2 μg) or MAO-B (10 μg), 160 μM substrate for MAO-A or 16 μM substrate for MAO-B, MAO-A buffer (100 mM Hepes buffer, pH 7.5, 5% glycerol) or MAO-B buffer (100 mM Hepes, pH 7.5, 5% glycerol, 10% dimethyl sulfoxide) in a final volume of 30 μL. After 20 minutes of pre-incubation of the MAO-A or MAO-B enzyme with the test ALDH-2 inhibitor compound, the reaction was initiated by adding enzyme substrate and the […] reaction was allowed to proceed for 60 minutes. Reconstituted Luciferin Detection Reagent (30 μL) was then added is added to simultaneously stop the MAO reaction and convert the methyl ester derivative to luciferin and produce light. The amount of light produced is directly proportional to the activity of MAO. The mixtures were further incubated for 20 minutes and activity of the enzyme was determined using Perkin-Elmer Envision Reader.

[5] = molecular target: T4, MAO-B (Homo sapiens, UniProt P27338); assay: MAO-B inhibition assay (luminogenic substrate); assay type: biochemical; settings: 20 min pre-incubation; 10 μM = highest concentration tested; read-out: Enzymatic Assays IC50 MAO-B
T4 sequence (P27338 1-520): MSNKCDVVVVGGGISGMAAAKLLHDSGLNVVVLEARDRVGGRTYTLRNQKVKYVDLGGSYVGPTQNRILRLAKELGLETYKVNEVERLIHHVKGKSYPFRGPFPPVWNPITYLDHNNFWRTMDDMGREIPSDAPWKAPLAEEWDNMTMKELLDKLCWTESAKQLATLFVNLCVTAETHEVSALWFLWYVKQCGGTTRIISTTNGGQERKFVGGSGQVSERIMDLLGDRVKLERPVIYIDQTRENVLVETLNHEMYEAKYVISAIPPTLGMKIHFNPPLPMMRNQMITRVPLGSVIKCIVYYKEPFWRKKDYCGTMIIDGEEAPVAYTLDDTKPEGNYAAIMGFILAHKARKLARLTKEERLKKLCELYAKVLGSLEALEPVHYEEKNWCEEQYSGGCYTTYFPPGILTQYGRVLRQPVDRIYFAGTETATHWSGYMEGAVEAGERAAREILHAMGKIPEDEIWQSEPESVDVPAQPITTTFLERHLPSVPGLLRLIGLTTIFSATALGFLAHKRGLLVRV
Protocol: as §1

IC50 [2]	IC50 [3]	IC50 [4]	IC50 [5]	SMILES	hepatotoxicity in humans [1]
–	–	–	–	O=C(NCc1ccc(-c2cc[nH]c(=O)c2)cc1)c1c(Cl)cccc1Cl [2,6-dichloro-N-[4-(2-oxo-1,2-dihydro-pyridin-4-yl)-benzyl]-benzamide]	high levels of hepatotoxicity
0.089 µM	> 10 µM	> 10 µM	> 10 µM	Cc1cccc(Cl)c1C(=O)NCc1cnc(N2CCNC(=O)C2)nc1 [(1a), 2-Chloro-6-methyl-N-((2-(3-oxopiperazin-1-yl)pyrimidin-5-yl)methyl)benzamide]	–
0.264 µM	> 10 µM	> 10 µM	> 10 µM	O=C1CN(c2ncc(CNC(=O)c3ccccc3Cl)cn2)CCN1 [(1b), 2-Chloro-N-((2-(3-oxopiperazin-1-yl)pyrimidin-5-yl)methyl)benzamide]	–
0.088 µM	> 10 µM	> 10 µM	> 10 µM	Cc1nccc(Cl)c1C(=O)NCc1cnc(N2CCNC(=O)C2)nc1 [(1c), 4-Chloro-2-methyl-N-((2-(3-oxopiperazin-1-yl)pyrimidin-5-yl)methyl)nicotinamide]	–
